Data from patent publication US20220142955A1, “METHODS OF TREATING ORGANIC ACIDEMIAS” (HemoShear Therapeutics, Inc., priority 2019, published 2022).
Values joined by “and” are separate entries in the source; they are usually repeats but may differ in a detail not shown here. Equal entries are not always repeated. Where two headings read alike, the source gives them in different places.

How the values were obtained:
[1] = tested on: primary hepatocytes of propionic acidemia patients; test: Reduction of 13C-propionyl-CoA and accumulation of compound-CoA ester after 13C-isoleucine challenge (Example 1); type: cell-based; details: Homo sapiens, Hepatocyte, 13C-labeled isoleucine, compound 0 μM to 1,000 μM
Protocol: Primary hepatocytes are isolated from explanted livers of propionic acidemia patients and are cultured on day 1 using standard protocols (see: Chapman et al. “Recapitulation of metabolic defects in a model of propionic acidemia using patient-derived primary hepatocytes” Mol. Genet. Metab. 2016, 117(3), 355-362). Approximately 2×10^5 hepatocytes are plated into each well of a collagen-coated 48-well tissue culture plate and pre-conditioned in a custom Modified Corning culture media for Hepatocells (Corning) without low levels of branched chain amino acids for 72 hours. On day 4, hepatocytes are treated with increasing doses of compound (0, 1, 3, 10, 30, 100, 300, 1000 μM) for 30 min. After 30 min the cells are challenged with ^13C-isoleucine (3 mM). At the end of the challenge period, cells are lysed in 100 μL of […] acetonitrile (MeCN) and 0.1% trifluoroacetic acid (TFA) containing 100 μM of ethymalonyl-CoA as an internal standard. Cells are removed from the well by scraping into the lysis buffer. The collected cellular samples are then dispensed into a microfuge tube. The plate wells are washed again with lysis buffer to ensure the remaining cells are dislocated from the well. All remaining collected cells are then moved into the centrifuge tube. The cellular samples are flash frozen in liquid nitrogen and stored at −80° C. To begin processing, the frozen cellular lysates are thawed on ice and vortexed. The samples are centrifuged at 20,000 g for 10 min at 4° C. and the total volume of supernatant is transferred to a no-bind 96-well plate on ice. The samples are dried under vacuum for about 2 hours and then resuspended in 150 μL of water in each well. Total volumes of samples are filtered through a prepared Durapore filter plate into a no-bind 96-well plate. The filtered samples are stored at −80° C. for HTMS/MS analysis.

[2] = tested on: primary hepatocytes of methylmalonic acidemia patients; test: Propionyl-CoA and methylmalonyl-CoA from various sources in MMA primary hepatocytes (Examples 4, 5); type: cell-based, human; details: Homo sapiens, Hepatocyte
Protocol: (§1) Primary hepatocytes isolated from livers of methylmalonic acidemia patients are treated with increasing doses of compound 1 (0, 1, 3, 10, 30, 100, 300, 1000 μM) for 30 minutes. […] At the end of the challenge period, media is removed and the cells are lysed with 70% MCCN and 0.1% TFA containing 100 μM of ethymalonyl-CoA as an internal standard and harvested. Cell lysates are processed for HTMS/MS analysis.
as §1, with “compound 5” for “compound 1”, “(0, 0.1, 0.3,” for “(0,”, “30, 100” for “30, 100, 300, 1000”, “30 min.” for “30 minutes.”, “70% MeCN” for “70% MCCN”

[3] = clinical; parameters: species or system human; details: in vivo; for AUC / Cmax: human
Protocol: In some embodiments, the method entails administering 2,2-dimethylbutyric acid, or a CoA ester or carnitine ester thereof, or a pharmaceutically acceptable salt, ester, or solvate thereof, at a concentration ranging from about, including about […] to 50 mg/kg.

[4] = tested on: PA primary hepatocytes; test: HemoShear Technology, PA primary hepatocytes (Examples 10, 11); type: cell-based, human
Description: For this experiment, we deployed the HemoShear REVEAL-Tx™ technology, which is based on the cone-and-plate configuration or viscometer combined with a porous polycarbonate membrane that mimics a filtering layer of sinusoidal endothelial cells (see: Dash A, Deering TG, Marukian S, et al. Physiological Hemodynamics and Transport Restore Insulin and Glucagon Responses in a Normal Glucose Milieu in Hepatocytes In Vitro. 73rd Scientific Sessions of the American Diabetes Association, 2013 (Chicago), and U.S. Pat. Nos. 7,811,782 and 9,500,642, and 9,617,521, each of which is incorporated by reference herein in its entirety).
Hepatocytes from propionic academia patients are plated in a collagen gel sandwich on one side of the membrane replicating the polarized orientation found in vivo within the hepatic sinusoids. On the other side, medium is continuously perfused and surface shear rates are applied across a range of physiological values derived from sinusoidal flow rates in vivo while also controlling transport in the system with in- and out-flow tubing to each compartment. Effectively, this creates a flow-based culture system where hepatocytes are shielded from direct effects of flow, as they would be in vivo, but perfusion, nutrient gradients, and interstitial fluid movement are maintained.
Biomarker levels are normalized to cell counts and cell volume to account for differences in the number of cells plated for each donor. […] This is most likely due to the presence of ^12C-succinyl-CoA in the sample, which has the same mass. In experiments described below, M-CoA is labeled with ^13C to determine a more accurate percent reduction. Compound 5 reduced the C3 concentration and the C3/C2 ratio with an EC50 similar to that for the reduction in P-CoA (FIGS. 7C, D).

[5] = PA pHeps, HemoShear, average ± SD

AUC ([3]; 30 mg/kg): 2180 µg·h/mL
Cmax ([3]; 30 mg/kg): 156 µg/mL
AUC ([3]; 40 mg/kg): 2620 µg·h/mL
Cmax ([3]; 40 mg/kg): 203 µg/mL
AUC ([3]; 50 mg/kg): 3200 µg·h/mL
Cmax ([3]; 50 mg/kg): 256 µg/mL
Blood plasma concentrations following administration (dose dependence) [3]: dose proportional
SMILES: CCC(C)(C)C(=O)O [Compound 5, 2,2-dimethybutanoic acid]
EC50 ([1]; read-out: concentration of 12C-Compound-CoA ester EC50): 950 nM
EC50 ([1]; read-out: concentration of 13C-propionyl-CoA EC50): 430 nM
EC50 ([2]; 100 μM 13C-heptanoate, read-out: concentration of methylmalonyl-CoA EC50): 20 nM
EC50 ([2]; 100 μM 13C-heptanoate, read-out: concentration of propionyl-CoA EC50): 3840 nM
EC50 ([2]; 1 mM 13C-KIVA, read-out: concentration of methylmalonyl-CoA EC50): 1170 nM
EC50 ([2]; 1 mM 13C-KIVA, read-out: concentration of propionyl-CoA EC50): 930 nM
EC50 ([2]; 3 mM 13C-ILE, read-out: concentration of methylmalonyl-CoA EC50): 1380 nM
EC50 ([2]; 3 mM 13C-ILE, read-out: concentration of propionyl-CoA EC50): 2040 nM
EC90 ([4]; Homo sapiens, Hepatocyte, HemoShear, PA and MMA pHeps together, read-out: average EC90 value across all biomarkers): 17100 ± 13400 nM
EC50 ([4]; Homo sapiens, Hepatocyte, PA donor 1, representative data (FIG. 7A), read-out: P-CoA reduction EC50): 1840 nM
EC50 ([4]; Homo sapiens, Hepatocyte, PA donor 1, representative data (FIG. 7E), read-out: MCA reduction EC50): 1960 nM
EC50 ([4]; Homo sapiens, Hepatocyte, PA pHeps, HemoShear, average ± SD, read-out: 2-Methylcitric acid (2MC) EC50): 1100 ± 500 nM
EC90 ([4]; Homo sapiens, Hepatocyte, PA pHeps, HemoShear, average ± SD, read-out: 2-Methylcitric acid (2MC) EC90): 7900 ± 3600 nM
EC50 ([4]; Homo sapiens, Hepatocyte, PA pHeps, HemoShear, average ± SD, read-out: 12C-Acetyl-Camitine (C2) EC50): 4800 ± 200 nM
EC90 ([4]; Homo sapiens, Hepatocyte, PA pHeps, HemoShear, average ± SD, read-out: 12C-Acetyl-Camitine (C2) EC90): 20700 ± 13100 nM
EC50 ([4]; Homo sapiens, Hepatocyte, PA pHeps, HemoShear, average ± SD, read-out: 12C-Propionyl-Carnitine (C3) EC50): 2600 ± 1900 nM
EC90 ([4]; Homo sapiens, Hepatocyte, PA pHeps, HemoShear, average ± SD, read-out: 12C-Propionyl-Carnitine (C3) EC90): 30800 ± 26400 nM
EC50 ([4]; Homo sapiens, Hepatocyte, PA pHeps, HemoShear, average ± SD, read-out: 12C-Propionyl-CoA (P-CoA) EC50): 1900 ± 1000 nM
EC90 ([4]; Homo sapiens, Hepatocyte, PA pHeps, HemoShear, average ± SD, read-out: 12C-Propionyl-CoA (P-CoA) EC90): 18400 ± 11300 nM
EC50 ([4]; Homo sapiens, Hepatocyte, PA pHeps, HemoShear, read-out: 12C-Acetyl-CoA EC50): 2300 ± 1900 nM
EC90 ([4]; Homo sapiens, Hepatocyte, PA pHeps, HemoShear, read-out: 12C-Acetyl-CoA EC90): 14400 ± 13600 nM
EC50 ([4]; Homo sapiens, Hepatocyte, PA pHeps, HemoShear, read-out: CoASH EC50): 11600 ± 1200 nM
EC90 ([4]; Homo sapiens, Hepatocyte, PA pHeps, HemoShear, read-out: CoASH EC90): 29800 ± 24300 nM
EC50 ([4]; Homo sapiens, Hepatocyte, PA pHeps, HemoShear, read-out: Compound 5-CoA (formation) EC50): 3000 ± 1500 nM
EC90 ([4]; Homo sapiens, Hepatocyte, PA pHeps, HemoShear, read-out: Compound 5-CoA (formation) EC90): 47100 ± 39700 nM
12C-Acetyl-CoA Percent change at 30 μM ([4]; PA pHeps, HemoShear): 54 ± 80.6%
CoASH Percent change at 30 μM ([4]; PA pHeps, HemoShear): −31.3 ± 24.2%
average reduction in the C3/C2 ratio ([4]; PA pHeps, HemoShear, at 30 μM): −2.1±1.2 log 2 fold change
2-Methylcitric acid (2MC) % change at 30 μM [4, 5]: −78.6±12.9%
12C-Acetyl-Camitine (C2) % change at 30 μM [4, 5]: 54 ± 80.6%
12C-Propionyl-Carnitine (C3) % change at 30 μM [4, 5]: −68.9±14.6% and −69.4 ± 16.2%
12C-Propionyl-CoA (P-CoA) % change at 30 μM [4, 5]: −78.8±10.9%
EC90 ([4]; PA pHeps, HemoShear, average ± SD, read-out: 12C-Propionyl-Carnitine (C3) EC90): 32100 ± 29300 nM
